Key:
[1] = molecular target: T1, M4 muscarinic cholinergic receptor (Homo sapiens, UniProt P08173); test: Muscarinic M4 receptor binding (lymphocyte suspension); conditions: lymphocyte suspension and sections
T1 construct: blood lymphocytes were used at a concentration of 1 × 10⁶ cells; endogenous in cells; host or cells: peripheral blood lymphocytes

mice = conditions: oral, immobility duration
[2] = molecular target: T2, M5 muscarinic cholinergic receptor (Homo sapiens, UniProt P08912); test: Muscarinic M5 receptor binding (lymphocyte suspension); conditions: lymphocyte suspension and sections
T2 construct: blood lymphocytes were used at a concentration of 1 × 10⁶ cells; endogenous in cells; host or cells: peripheral blood lymphocytes
T2 sequence (P08912 whole entry): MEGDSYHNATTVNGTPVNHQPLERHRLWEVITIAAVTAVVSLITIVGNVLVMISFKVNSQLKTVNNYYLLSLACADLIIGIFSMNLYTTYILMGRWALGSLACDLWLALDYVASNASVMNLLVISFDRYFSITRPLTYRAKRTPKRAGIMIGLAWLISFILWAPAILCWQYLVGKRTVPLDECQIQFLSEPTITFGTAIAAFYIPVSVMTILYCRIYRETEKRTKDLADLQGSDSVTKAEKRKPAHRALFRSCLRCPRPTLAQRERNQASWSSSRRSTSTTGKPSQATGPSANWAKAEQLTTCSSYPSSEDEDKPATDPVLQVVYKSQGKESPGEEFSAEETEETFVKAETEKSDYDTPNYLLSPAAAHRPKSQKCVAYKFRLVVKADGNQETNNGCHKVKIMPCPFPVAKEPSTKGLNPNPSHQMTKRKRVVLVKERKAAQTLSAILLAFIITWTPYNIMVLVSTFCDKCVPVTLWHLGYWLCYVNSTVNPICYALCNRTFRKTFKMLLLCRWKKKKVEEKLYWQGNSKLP
Experimental: (§1) Antagonist potency was determined according to literature, by measuring inhibition of RAMH-induced [35S]GTPγS binding in recombinant hH3R membranes as previously. The […]
(§2) Inverse agonist potency was conducted by measuring inhibition of basal [35S]GTPγS binding in recombinant hH3 Rmembranes. Test compound or vehicle was added to the wells, followed by [35S]GTPγS to a final concentration of 0.2 nM. Nonspecific binding was determined in the presence of 10 μM unlabeled GTPγS. The control agonist signal was determined in wells containing vehicle in place of the test compound, and the basal signal was determined in wells containing vehicle in place of both diluted compound and the RAMH […]
(§3) 3. Selectivity of Compound 11b for Additional Receptors […]
(§4) transporter, 3[H]-WIN35,428, rat striatum; (2) Dopamine D1 receptor, 3[H]-SCH23390, rat striatum; (3) Dopamine D2 receptor, [3H]spiperone, rat striatum; (4) Dopamine D3 receptor, [3H] 7-OH-DPAT, rat olfactory tubercle; (5) Serotonin 5-HT2A receptor, [3H]Ketanserin, rat brain cortex;
(§5) (6) Serotonin 5-HT2C receptor, [3H]mesulergine, rat brain cortex; (7) Adrenergic α2 receptor, [3H]- rauwolscine, rat cerebral cortex; (8) Histamine H2 receptor, [3H]tiotidine, Sf9 cells and […]

[3] = molecular target: T3, Serotonin 5-HT2A receptor (Rattus norvegicus, UniProt P14842); test: Serotonin 5-HT2A receptor binding ([3H]ketanserin); conditions: rat brain cortex
T3 construct: The cerebral cortex of a rat was finely homogenized using an ULTRA TURAX; from tissue; host or cells: rat cerebral cortex membranes
T3 sequence (P14842 whole entry): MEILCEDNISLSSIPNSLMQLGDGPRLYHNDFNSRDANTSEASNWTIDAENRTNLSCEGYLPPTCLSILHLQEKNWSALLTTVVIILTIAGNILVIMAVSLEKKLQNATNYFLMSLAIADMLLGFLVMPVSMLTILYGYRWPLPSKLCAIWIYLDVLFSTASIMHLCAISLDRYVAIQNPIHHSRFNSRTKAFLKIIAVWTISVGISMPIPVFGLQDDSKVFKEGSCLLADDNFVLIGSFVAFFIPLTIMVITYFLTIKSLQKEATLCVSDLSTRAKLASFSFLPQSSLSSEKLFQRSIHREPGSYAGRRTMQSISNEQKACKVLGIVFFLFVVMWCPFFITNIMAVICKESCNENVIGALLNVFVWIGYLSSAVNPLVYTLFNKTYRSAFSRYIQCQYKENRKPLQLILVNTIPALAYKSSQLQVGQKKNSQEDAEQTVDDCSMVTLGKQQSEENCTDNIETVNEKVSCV

NMDA receptor = NMDA receptor (Rattus norvegicus, UniProt P35439); test: NMDA receptor binding; conditions: read-out: Ki NDMA
muscarinic M1 receptor = molecular target: T4, muscarinic M1 receptor (Homo sapiens, UniProt P11229); test: Muscarinic M1 receptor binding (peripheral blood lymphocytes); conditions: lymphocyte suspension and sections
T4 construct: blood lymphocytes were used at a concentration of 1 × 10⁶ cells; endogenous in cells; host or cells: peripheral blood lymphocytes
T4 sequence (P11229 whole entry): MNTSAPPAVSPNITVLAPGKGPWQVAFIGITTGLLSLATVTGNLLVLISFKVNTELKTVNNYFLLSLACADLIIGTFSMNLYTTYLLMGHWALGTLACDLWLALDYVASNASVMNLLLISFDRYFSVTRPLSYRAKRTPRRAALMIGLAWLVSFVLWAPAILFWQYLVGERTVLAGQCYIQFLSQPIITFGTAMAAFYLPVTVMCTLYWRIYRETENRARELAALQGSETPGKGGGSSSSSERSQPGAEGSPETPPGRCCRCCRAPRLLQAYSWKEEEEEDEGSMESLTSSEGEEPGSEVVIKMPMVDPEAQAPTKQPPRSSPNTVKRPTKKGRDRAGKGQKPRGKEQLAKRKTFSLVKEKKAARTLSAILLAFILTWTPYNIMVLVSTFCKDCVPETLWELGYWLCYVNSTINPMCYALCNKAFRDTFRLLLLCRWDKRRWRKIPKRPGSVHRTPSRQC

σ1 receptor = molecular target: T5, σ1 receptor (Cavia porcellus, UniProt Q60492); test: σ1 receptor binding ([3H]-(+)-pentazocine); conditions: guinea pig brain membrane
T5 construct: from tissue; host or cells: guinea pig brain membranes
T5 sequence (Q60492 whole entry): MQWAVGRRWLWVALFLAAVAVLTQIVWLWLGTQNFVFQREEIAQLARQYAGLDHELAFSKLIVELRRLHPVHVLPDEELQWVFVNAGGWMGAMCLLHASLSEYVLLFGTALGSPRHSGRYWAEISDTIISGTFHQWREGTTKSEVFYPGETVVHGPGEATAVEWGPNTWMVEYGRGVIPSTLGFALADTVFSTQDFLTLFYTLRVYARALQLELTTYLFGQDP
Experimental: as §1, §2, §3, §4, §5

[4] = Acute toxicity, up-and-down procedure; conditions: female, rat, in vivo; females, F344 rats, oral
Experimental: The hERG potassium channel blocking potential was evaluated using the whole-cell patch clamp method with hERG channels expressed in HEK 293 cells as the biological material. The Axopatch 200B amplifier and Digidata 1440A converter from Molecular Devices were integral to the setup. Electrodes crafted from borosilicate glass with filament by Sutter Instrument Company were used for recordings.
Command pulse protocols for voltage clamping and data acquisition were managed by pCLAMP […]
The bath solution contained 137 mM NaCl, 5.4 mM KCl, 10 mM glucose, 10 mM HEPES, and 2 mM CaCl2, with pH adjusted to 7.5 by NaOH. The pipet solution was composed of 140 mM KCl, 1 mM MgCl2, 5 mM EGTA, 10 mM HEPES, and 5 mM Na2ATP, with pH adjusted to 7.2 using KOH. The compound 11b was dissolved in a 50% (w/v) DMSO solution at an initial concentration of 1 mM and diluted to the test concentration with the bath solution. […]
number of surviving animals was recorded after 24 h of drug administration, and the percent mortality in each group was calculated. The LD50 values were calculated by using the soft AOT425statpgm […]
group containing 16 mice. […] The duration of immobility during the last 4 minutes of a total time of 6 minutes was recorded, and animals were judged to be immobile when they floated motionless, making only necessary movements to keep their heads above the water. […]

[5] = molecular target: T6, Serotonin 5-HT2C receptor (Rattus norvegicus, UniProt P08909); test: Serotonin 5-HT2C receptor binding ([3H]mesulergine); conditions: rat brain cortex
T6 construct: The cerebral cortex of a rat was processed by homogenization; from tissue; host or cells: rat cerebral cortex membranes
T6 sequence (P08909 33-460): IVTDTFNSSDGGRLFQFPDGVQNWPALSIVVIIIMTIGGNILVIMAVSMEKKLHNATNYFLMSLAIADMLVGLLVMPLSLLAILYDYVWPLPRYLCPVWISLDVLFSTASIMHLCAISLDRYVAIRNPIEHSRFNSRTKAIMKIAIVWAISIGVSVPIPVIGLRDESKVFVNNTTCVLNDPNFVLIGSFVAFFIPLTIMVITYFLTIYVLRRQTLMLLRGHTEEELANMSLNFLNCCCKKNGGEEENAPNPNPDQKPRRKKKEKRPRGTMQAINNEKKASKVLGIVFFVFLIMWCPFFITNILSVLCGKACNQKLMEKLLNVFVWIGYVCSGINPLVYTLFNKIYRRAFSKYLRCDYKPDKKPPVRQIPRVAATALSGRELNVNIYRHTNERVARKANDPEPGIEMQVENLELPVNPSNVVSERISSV

Histamine H4 receptor = molecular target: T7, Histamine H4 receptor (Homo sapiens, UniProt Q9H3N8); test: Histamine H4 receptor binding ([3H]Na-Methylhistamine, Sf9 membranes); conditions: Sf9 cells and membrane
T7 construct: expressed in transfected cells; host or cells: Sf9 membranes
T7 sequence (Q9H3N8 whole entry, species assumed): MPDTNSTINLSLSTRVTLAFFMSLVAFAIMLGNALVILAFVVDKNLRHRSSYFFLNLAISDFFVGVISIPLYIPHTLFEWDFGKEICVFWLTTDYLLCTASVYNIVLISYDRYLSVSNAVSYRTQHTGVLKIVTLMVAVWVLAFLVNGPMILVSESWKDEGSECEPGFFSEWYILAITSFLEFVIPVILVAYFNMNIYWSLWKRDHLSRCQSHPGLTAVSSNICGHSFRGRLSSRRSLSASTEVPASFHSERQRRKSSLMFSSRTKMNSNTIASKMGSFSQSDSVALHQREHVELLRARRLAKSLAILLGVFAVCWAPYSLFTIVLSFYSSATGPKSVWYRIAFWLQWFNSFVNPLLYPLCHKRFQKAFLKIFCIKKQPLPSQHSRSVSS

NET = NET (Rattus norvegicus, UniProt Q63380); test: Monoamine uptake transporter assay, [3H]NE uptake by NET; assay type: biochemical
NET, sequence (Q63380 1-617): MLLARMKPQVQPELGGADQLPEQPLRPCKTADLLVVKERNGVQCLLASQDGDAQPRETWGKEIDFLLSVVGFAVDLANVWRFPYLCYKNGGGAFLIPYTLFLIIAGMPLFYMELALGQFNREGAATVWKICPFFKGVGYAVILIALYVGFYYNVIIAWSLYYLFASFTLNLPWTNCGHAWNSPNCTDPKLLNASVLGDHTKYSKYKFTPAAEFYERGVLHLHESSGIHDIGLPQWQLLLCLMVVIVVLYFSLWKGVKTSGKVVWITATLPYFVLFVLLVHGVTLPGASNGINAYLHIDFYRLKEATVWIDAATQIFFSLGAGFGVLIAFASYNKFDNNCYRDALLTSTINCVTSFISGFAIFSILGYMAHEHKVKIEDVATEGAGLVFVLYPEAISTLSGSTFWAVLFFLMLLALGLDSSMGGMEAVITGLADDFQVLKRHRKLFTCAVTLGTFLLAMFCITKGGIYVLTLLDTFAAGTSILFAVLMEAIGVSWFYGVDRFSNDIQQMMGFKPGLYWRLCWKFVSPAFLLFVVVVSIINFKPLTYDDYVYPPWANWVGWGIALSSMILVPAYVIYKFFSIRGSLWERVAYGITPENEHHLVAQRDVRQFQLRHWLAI

Histamine H2 receptor = Histamine H2 receptor (Homo sapiens, UniProt P25021); test: Histamine H2 receptor binding ([3H]tiotidine, Sf9 membranes); conditions: Sf9 cells and membrane
Histamine H2 receptor, sequence (P25021 whole entry): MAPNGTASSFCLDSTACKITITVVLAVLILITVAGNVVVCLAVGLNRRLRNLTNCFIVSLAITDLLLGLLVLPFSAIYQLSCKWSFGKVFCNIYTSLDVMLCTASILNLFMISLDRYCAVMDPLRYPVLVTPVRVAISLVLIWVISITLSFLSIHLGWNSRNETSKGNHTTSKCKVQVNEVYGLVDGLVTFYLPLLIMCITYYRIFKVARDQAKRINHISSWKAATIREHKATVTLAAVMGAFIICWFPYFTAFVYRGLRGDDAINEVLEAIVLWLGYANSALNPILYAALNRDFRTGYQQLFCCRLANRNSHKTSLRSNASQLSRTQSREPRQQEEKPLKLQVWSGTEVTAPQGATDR

T1 sequence (P08173 whole entry): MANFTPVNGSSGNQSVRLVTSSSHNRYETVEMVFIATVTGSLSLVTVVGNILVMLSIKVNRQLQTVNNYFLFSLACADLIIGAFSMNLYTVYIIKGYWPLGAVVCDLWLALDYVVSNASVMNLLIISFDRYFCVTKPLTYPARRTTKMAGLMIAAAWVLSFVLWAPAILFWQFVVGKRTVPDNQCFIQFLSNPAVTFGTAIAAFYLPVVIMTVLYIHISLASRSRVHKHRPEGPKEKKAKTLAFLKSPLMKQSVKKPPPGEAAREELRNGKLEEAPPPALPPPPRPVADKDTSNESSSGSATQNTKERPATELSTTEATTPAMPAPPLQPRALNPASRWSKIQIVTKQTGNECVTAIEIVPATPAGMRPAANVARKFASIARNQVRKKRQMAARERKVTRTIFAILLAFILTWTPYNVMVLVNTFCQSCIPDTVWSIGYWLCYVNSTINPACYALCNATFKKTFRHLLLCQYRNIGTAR

CN(C)CCC(Oc1cccc2c1OCO2)c1ccc(OCCCN2CCCCC2)cc1.O=C(O)C(=O)O (centres unmarked) [Compound 11b, 3-(benzo[d][1,3]dioxol-4-yloxy)-N,N-dimethyl-3-(4-(3-(piperidin-1-yl)propoxy)phenyl)propan-1-amine oxalate]
Ki [1]: > 1000 nM | minimal effective dose (MED) in FST (mice): 6 mg/kg | Ki [2]: > 1000 nM | Ki [3]: 320 nM | Ki (NMDA receptor): > 1000 nM | Ki (muscarinic M1 receptor): > 1000 nM | Ki (σ1 receptor): > 1000 nM | LD50 at 24 h [4]: 512 mg/kg | Ki [5]: > 1000 nM | Ki (Histamine H4 receptor): > 1000 nM | Activation (10 μM, %) NET (NET; 10 μM, n = 3): 2.7 ± 0.2% | inhibition at 10 µM (NET; 10 μM, n = 3): > 90% | IC50 (NET; [3H]NE uptake, antagonist assay): 49.6 nM | Ki (Histamine H2 receptor): > 1000 nM
